From patent US20260078120A1, “SUBSTITUTED PYRIDOPYRIMIDINONES” (MIRATI THERAPEUTICS, INC., priority 2022, published 2026) come the findings set out here.

In assay [1] the test system is T47D (PI3Kα H1047R mutant) cells. The assay is described as follows: CellTiter-Glo 2.0 luminescent cell viability assay, 72 hours, T47D cells. The class given is cell-based. As to conditions: T47D (PI3Kα H1047R mutant) cells, CellTiter-Glo, approximately 72 hours, read-out: T47D (H1047R mutant) Viability IC50. An outline of the steps: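 Viability was measured by CellTiter-Glo 2.0 luminescence after approximately 72 h of compound exposure at 37° C. Plating was 1000 cells per well the day before dosing, with ten 1:4 dilutions from a 10 µM top concentration. Values as percent of vehicle were fitted by variable-slope log(inhibitor) regression to give IC50.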
Background: In ATP-based viability assays light output follows the ATP content of the culture.

In assay [2] the test system is SKBR3 (PI3Kα wild type) cells. The assay is described as follows: CellTiter-Glo 2.0 luminescent cell viability assay, 72 hours, SKBR3 cells. Conditions: SKBR3 (PI3Kα wild type) cells, CellTiter-Glo, approximately 72 hours, read-out: SKBR3 (WT) Viability IC50. The class given is cell-based. The method, boiled down:
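Viability measured via CTG luminescence following roughly 72 hours of compound exposure at 37° C. Dosing used a 10 um starting concentration diluted 1:4 over 10 points; percent-of-vehicle data fitted with a variable-slope four-parameter model for IC50.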

Like-named read-outs stand apart in the source and are kept apart here.

What is called IC50 is the concentration at which inhibition is half-maximal. For `Cc1cc([C@@H](C)Nc2ccccc2C(=O)O)c2nc(N3C[C@H]4CC[C@@H]3C4)c(C#N)c(=O)n2c1` [Example 11-294, 2-(((R)-1-(2-((1R,4S)-2-azabicyclo[2.2.1]heptan-2-yl)-3-cyano-7-methyl-4-oxo-4H-pyrido[1,2-a]pyrimidin-9-yl)ethyl)amino)benzoic acid], the IC50 in assay [1] (Homo sapiens, T47D, 72 h) was 0.17 µM; in assay [2] (Homo sapiens, SK-BR-3, 72 h), greater than 10 µM.
`Cc1cc([C@@H](C)Nc2ccccc2C(=O)O)c2nc(-c3cnn(-c4ccc(C#N)cc4)c3)c(C)c(=O)n2c1` [Example 11-233, (R)-2-((1-(2-(1-(4-cyanophenyl)-1H-pyrazol-4-yl)-3,7-dimethyl-4-oxo-4H-pyrido[1,2-a]pyrimidin-9-yl)ethyl)amino)benzoic acid]: the IC50 in assay [1] (Homo sapiens, T47D, 72 h) is 0.212 µM; in assay [2] (Homo sapiens, SK-BR-3, 72 h), greater than 10 µM.
The corresponding values for `CO[C@@H]1CCN(c2nc3c([C@@H](C)Nc4ccccc4C(=O)O)cc(C)cn3c(=O)c2C)CC1(F)F` [Example 10-28, 2-(((R)-1-(2-((R)-3,3-difluoro-4-methoxypiperidin-1-yl)-3,7-dimethyl-4-oxo-4H-pyrido[1,2-a]pyrimidin-9-yl)ethyl)amino)benzoic acid] are 0.053 µM and greater than 10 µM.
The like results for `C#CC(Nc1ccccc1C(=O)O)c1cc(C)cn2c(=O)c(C)c(N3CCC(F)(F)CC3)nc12` (stereo not drawn) [Example 11-241, 2-((1-(2-(4,4-difluoropiperidin-1-yl)-3,7-dimethyl-4-oxo-4H-pyrido[1,2-a]pyrimidin-9-yl)prop-2-yn-1-yl)amino)benzoic acid] were, in that order, greater than 10 µM and greater than 10 µM.
With `Cc1cc([C@@H](C)Nc2ccccc2C(=O)O)c2nc(N3CCn4nccc4C3)c(C)c(=O)n2c1` [Example 11-431, (R)-2-((1-(2-(6,7-dihydropyrazolo[1,5-a]pyrazin-5(4H)-yl)-3,7-dimethyl-4-oxo-4H-pyrido[1,2-a]pyrimidin-9-yl)ethyl)amino)benzoic acid], the IC50 in assay [1] (Homo sapiens, T47D, 72 h) was 0.403 µM; in assay [2] (Homo sapiens, SK-BR-3, 72 h), greater than 10 µM.
The corresponding values for `[2H]C12CC(C3CCN(c4nc5c([C@@H](C)Nc6ccccc6C(=O)O)cc(C)cn5c(=O)c4C)CC3)(C1)C2` [Example 11-36, (R)-2-((1-(2-(4-(bicyclo[1.1.1]pentan-1-yl-3-d)piperidin-1-yl)-3,7-dimethyl-4-oxo-4H-pyrido[1,2-a]pyrimidin-9-yl)ethyl)amino)benzoic acid] are 0.39 µM and greater than 10 µM.
With `Cc1cc([C@@H](C)Nc2ccccc2C(=O)O)c2nc(N3Cc4cc(F)c(F)cc4C3)c(C)c(=O)n2c1` [Example 11-188, (R)-2-((1-(2-(5,6-difluoroisoindolin-2-yl)-3,7-dimethyl-4-oxo-4H-pyrido[1,2-a]pyrimidin-9-yl)ethyl)amino)benzoic acid], the IC50 in assay [1] is 0.152 µM; in assay [2], greater than 10 µM.
Regarding `Cc1cc(C(=O)NC2CCCCC2C(=O)O)c2nc(N3CCCCC3)c(C#N)c(=O)n2c1` (stereo not drawn) [Example 11-315, 2-(3-cyano-7-methyl-4-oxo-2-(piperidin-1-yl)-4H-pyrido[1,2-a]pyrimidine-9-carboxamido)cyclohexane-1-carboxylic acid], the IC50 was greater than 10 µM in assay [1] (Homo sapiens, T47D, 72 h) and greater than 10 µM in assay [2] (Homo sapiens, SK-BR-3, 72 h).
In the case of `Cc1cc([C@@H](C)Nc2ccccc2C(=O)O)c2nc(N[C@@H](C3CC3)C(F)(F)F)c(C#N)c(=O)n2c1` [Example 11-161, 2-(((R)-1-(3-cyano-2-(((S)-1-cyclopropyl-2,2,2-trifluoroethyl)amino)-7-methyl-4-oxo-4H-pyrido[1,2-a]pyrimidin-9-yl)ethyl)amino)benzoic acid], the IC50 is 1.05 µM in assay [1] (Homo sapiens, T47D, 72 h) and greater than 10 µM in assay [2] (Homo sapiens, SK-BR-3, 72 h).
Regarding `Cc1cc([C@@H](C)Nc2ccccc2C(=O)O)c2nc([C@H]3CCN(C)C(=O)C3)cc(=O)n2c1` [Example 11-376, 2-(((R)-1-(7-methyl-2-((S)-1-methyl-2-oxopiperidin-4-yl)-4-oxo-4H-pyrido[1,2-a]pyrimidin-9-yl)ethyl)amino)benzoic acid], the IC50 is 6 µM in assay [1] (Homo sapiens, T47D, 72 h) and greater than 10 µM in assay [2] (Homo sapiens, SK-BR-3, 72 h).
In the case of `Cc1cc([C@@H](C)Nc2ccccc2C(=O)O)c2nc(N3CCN(c4cnn(C)c4)CC3)c(C#N)c(=O)n2c1` [Example 11-264, (R)-2-((1-(3-cyano-7-methyl-2-(4-(1-methyl-1H-pyrazol-4-yl)piperazin-1-yl)-4-oxo-4H-pyrido[1,2-a]pyrimidin-9-yl)ethyl)amino)benzoic acid], the IC50 in assay [1] (Homo sapiens, T47D, 72 h) is 1.18 µM; in assay [2] (Homo sapiens, SK-BR-3, 72 h), greater than 10 µM.
Consider `Cc1cc([C@@H](C)Nc2ccccc2C(=O)O)c2nc(NC[C@H]3CCOC3)c(C)c(=O)n2c1` [Example 11-196, 2-(((R)-1-(3,7-dimethyl-4-oxo-2-((((R)-tetrahydrofuran-3-yl)methyl)amino)-4H-pyrido[1,2-a]pyrimidin-9-yl)ethyl)amino)benzoic acid], for which the IC50 in assay [1] (Homo sapiens, T47D, 72 h) was 0.646 µM; in assay [2] (Homo sapiens, SK-BR-3, 72 h) it was greater than 10 µM.
The corresponding values for `Cc1cc([C@@H](C)Nc2ccccc2C(=O)O)c2nc(N3CCN(C4CCOCC4)CC3)c(C#N)c(=O)n2c1` [Example 11-186, (R)-2-((1-(3-cyano-7-methyl-4-oxo-2-(4-(tetrahydro-2H-pyran-4-yl)piperazin-1-yl)-4H-pyrido[1,2-a]pyrimidin-9-yl)ethyl)amino)benzoic acid] are 0.606 µM and greater than 10 µM.
Take `Cc1cc([C@@H](C)Nc2ccccc2C(=O)O)c2nc(N3CC4(C3)CC3(CCC3)C4)c(C)c(=O)n2c1` [Example 11-26, (R)-2-((1-(2-(2-azadispiro[3.1.3^6.1^4]decan-2-yl)-3,7-dimethyl-4-oxo-4H-pyrido[1,2-a]pyrimidin-9-yl)ethyl)amino)benzoic acid]: the IC50 in assay [1] (Homo sapiens, T47D, 72 h) was 0.216 µM; in assay [2] (Homo sapiens, SK-BR-3, 72 h), greater than 10 µM.
The like results for `Cc1cc([C@@H](C)Nc2ccccc2C(=O)O)c2nc(N3CC(O)C4(CCC4)C3)c(C)c(=O)n2c1` (stereo partly drawn) [Example 11-28, 2-(((1R)-1-(2-(8-hydroxy-6-azaspiro[3.4]octan-6-yl)-3,7-dimethyl-4-oxo-4H-pyrido[1,2-a]pyrimidin-9-yl)ethyl)amino)benzoic acid] were, in that order, 0.187 µM and greater than 10 µM.
The like results for `CO[C@H]1CN(c2nc3c([C@@H](C)Nc4ccccc4C(=O)O)cc(C)cn3c(=O)c2C)CC1(F)F` [Example 11-118, 2-(((R)-1-(2-((S)-3,3-difluoro-4-methoxypyrrolidin-1-yl)-3,7-dimethyl-4-oxo-4H-pyrido[1,2-a]pyrimidin-9-yl)ethyl)amino)benzoic acid] were, in that order, 0.233 µM and greater than 10 µM.
The like results for `Cc1cc([C@@H](C)Nc2ccccc2C(=O)O)c2nc(N3CC4C5CCC5C4C3)c(C)c(=O)n2c1` (stereo partly drawn) [Example 11-33, 2-(((1R)-1-(3,7-dimethyl-4-oxo-2-(8-azatricyclo[4.3.0.0^2,5]nonan-8-yl)-4H-pyrido[1,2-a]pyrimidin-9-yl)ethyl)amino)benzoic acid] were, in that order, 0.31 µM and greater than 10 µM.
As to `CC(=O)N1CC=C(c2cc(=O)n3cc(C)cc([C@@H](C)Nc4ccccc4C(=O)O)c3n2)CC1` [Example 11-379, (R)-2-((1-(2-(1-acetyl-1,2,3,6-tetrahydropyridin-4-yl)-7-methyl-4-oxo-4H-pyrido[1,2-a]pyrimidin-9-yl)ethyl)amino)benzoic acid], the IC50 in assay [1] (Homo sapiens, T47D, 72 h) was 3.91 µM; in assay [2] (Homo sapiens, SK-BR-3, 72 h), greater than 10 µM.
`Cc1cc([C@@H](C)Nc2ccccc2C(=O)O)c2nc(N3CCn4ccnc4C3)c(C)c(=O)n2c1` [Example 11-429, (R)-2-((1-(2-(5,6-dihydroimidazo[1,2-a]pyrazin-7(8H)-yl)-3,7-dimethyl-4-oxo-4H-pyrido[1,2-a]pyrimidin-9-yl)ethyl)amino)benzoic acid]: the IC50 in assay [1] (Homo sapiens, T47D, 72 h) was 3.14 µM; in assay [2] (Homo sapiens, SK-BR-3, 72 h) it was greater than 10 µM.
`Cc1cc([C@H](C)Nc2ccccc2C(=O)O)c2nc(N3CCCCC3)c(C(F)(F)F)c(=O)n2c1` [Example 11-414, (S)-2-((1-(7-methyl-4-oxo-2-(piperidin-1-yl)-3-(trifluoromethyl)-4H-pyrido[1,2-a]pyrimidin-9-yl)ethyl)amino)benzoic acid]: the IC50 is 1.82 µM in assay [1] (Homo sapiens, T47D, 72 h) and greater than 10 µM in assay [2] (Homo sapiens, SK-BR-3, 72 h).
The corresponding values for `Cc1cc([C@@H](C)Nc2ccccc2C(=O)O)c2nc(N3CCN(c4ccncc4)CC3)c(C)c(=O)n2c1` [Example 11-441, (R)-2-((1-(3,7-dimethyl-4-oxo-2-(4-(pyridin-4-yl)piperazin-1-yl)-4H-pyrido[1,2-a]pyrimidin-9-yl)ethyl)amino)benzoic acid] are 0.408 µM and greater than 10 µM.
On to `Cc1cc([C@@H](C)Nc2ccnnc2C(=O)O)c2nc(N3Cc4ccccc4C3)c(C)c(=O)n2c1` [Example 11-277, (R)-4-((1-(2-(isoindolin-2-yl)-3,7-dimethyl-4-oxo-4H-pyrido[1,2-a]pyrimidin-9-yl)ethyl)amino)pyridazine-3-carboxylic acid], for which the IC50 was 4.19 µM in assay [1] (Homo sapiens, T47D, 72 h) and greater than 10 µM in assay [2] (Homo sapiens, SK-BR-3, 72 h).
As to `Cc1cc(C(C)Nc2ccccc2)c2nc(N3CCCCC3)c(C#N)c(=O)n2c1` (stereo not drawn) [Example 11-299, 7-methyl-4-oxo-9-(1-(phenylamino)ethyl)-2-(piperidin-1-yl)-4H-pyrido[1,2-a]pyrimidine-3-carbonitrile], the half-maximal inhibitory concentration (IC50) was determined as 9.25 µM in assay [1] (Homo sapiens, T47D, 72 h) and 9.32 µM in assay [2] (Homo sapiens, SK-BR-3, 72 h).
As for `Cc1cc([C@@H](C)Nc2ccc(C#N)cc2C(=O)O)c2nc(N3Cc4ccccc4C3)c(C)c(=O)n2c1` [Example 11-310, (R)-5-cyano-2-((1-(2-(isoindolin-2-yl)-3,7-dimethyl-4-oxo-4H-pyrido[1,2-a]pyrimidin-9-yl)ethyl)amino)benzoic acid], the IC50 in assay [1] (Homo sapiens, T47D, 72 h) is 0.634 µM; in assay [2] (Homo sapiens, SK-BR-3, 72 h) it was greater than 10 µM.
